Patent US9795139B2, “Molecules having pesticidal utility, and intermediates, compositions, and processes, related thereto” (priority 2015, dated 2017)

Assays:
Assay type in all cases: in vivo
[1] = test system: Green Peach Aphid (Myzus persicae, MYZUPE); assay: Bioassay on Green Peach Aphid (GPA), foliar spray on cabbage seedlings; conditions: 72 h, 200 ppm foliar spray on cabbage seedlings, three days, Abbott corrected % control, read-out: GPA % Control (or Mortality) rating
Method: Certain molecules disclosed in this document were tested against GPA using procedures described in the following example. In the reporting of the results, the “GPA & YFM Rating Table” was used (See Table Section).
Cabbage seedlings grown in 3-inch pots, with 2-3 small (3-5 cm) true leaves, were used as test substrate. The seedlings were infested with 20-50 GPA (wingless adult and nymph stages) one day prior to chemical application. Four pots with individual seedlings were used for each treatment. Test molecules (2 mg) were dissolved in 2 mL of acetone/methanol (1:1) solvent, forming stock solutions of 1000 ppm test molecule.
The stock solutions were diluted 5× with 0.025% Tween 20 in water to obtain the solution at 200 ppm test molecule. A hand-held aspirator-type sprayer was used for spraying a solution to both sides of […] leaves until runoff. Reference plants (solvent check) were sprayed with the diluent only containing 20% by volume of acetone/methanol (1:1) solvent. Treated plants were held in a holding room for three days at approximately 25° C. and ambient relative humidity (RH) prior to grading. Evaluation was conducted by counting the number of live aphids per plant under a microscope. Percent control was measured using Abbott's correction formula (W. S. Abbott, “A Method of Computing the Effectiveness of an Insecticide” J. Econ. Entomol. 18 (1925), pp. 265-267) as follows. Corrected % Control=100*(X−Y)/X where X=No. of live aphids on solvent check plants and Y=No. of live aphids on treated plants. The results are indicated in the table entitled “Table ABC: Biological Results” (See Table Section).

[2] = test system: Beet Armyworm (Spodoptera exigua, LAPHEG); assay: Bioassay on Beet Armyworm (BAW), 128-well diet tray assay; conditions: 168 h, 50 μg/cm^2 on artificial diet, second instar larvae, 25° C., five to seven days, average of eight wells, read-out: BAW % Control (or Mortality) rating
Procedure, shortened: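 Second-instar larvae, one to five per well, placed on artificial diet surface-treated with 50 μg/cm^2 compound applied in 90:10 acetone-water and dried. Held 5–7 days at 25° C., 14:10 light-dark. Percent mortality recorded per well and averaged over eight wells.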

[3] = test system: Cabbage Looper (Trichoplusia ni, TRIPNI); assay: Bioassay on Cabbage Looper (CL), 128-well diet tray assay; conditions: 168 h, 50 μg/cm^2 on artificial diet, second instar larvae, 25° C., five to seven days, average of eight wells, read-out: CL % Control (or Mortality) rating
Procedure, shortened: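 Mortality of second instar larvae exposed to diet coated with 50 μg/cm^2 compound (acetone-water 90:10 vehicle, dried); 25° C., 5–7 days.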

[4] = test system: Yellow Fever Mosquito (Aedes aegypti, AEDSAE); conditions: about 1 day-old larvae, 96-well plate from 4000 ppm DMSO master, 3 days at room temperature
Procedure, shortened: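 Aedes aegypti larvae (about 1 day old) in liver-powder water were added to plates dispensed from DMSO master plates (4000 ppm stock) diluted with 90:10 water/acetone; six replicate plates per master. Lidded plates were held at room temperature for 3 days, then each well was scored for mortality.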

SMILES: O=C(NC1CC(F)(F)C1)c1cc(NC(=O)[C@H]2[C@H](c3ccc(F)c(Cl)c3)C2(Cl)Cl)ccc1Cl (relative stereo) [PF7, trans-2-Chloro-5-(2,2-dichloro-3-(3-chloro-4-fluorophenyl)cyclopropane-1-carboxamido)-N-(3,3-difluorocyclobutyl)benzamide]
- mortality at 200 ppm [1]: 80 to 100%
- mortality at 50 µg/cm2 [2]: 50 to 100%
- mortality at 50 µg/cm2 [3]: 50 to 100%
- YFM % Control (or Mortality) rating [4]: D (No activity noticed in this bioassay)

SMILES: O=C(NC1CC(F)(F)C1)c1cc(NC(=O)[C@H]2[C@H](c3cc(Cl)cc(Br)c3)C2(Cl)Cl)ccc1Cl (relative stereo) [PF8, trans-5-(3-(3-Bromo-5-chlorophenyl)-2,2-dichlorocyclopropane-1-carboxamido)-2-chloro-N-(3,3-difluorocyclobutyl)benzamide]
- mortality at 200 ppm [1]: 80 to 100%
- mortality at 50 µg/cm2 [2]: 50 to 100%
- mortality at 50 µg/cm2 [3]: 50 to 100%
- YFM % Control (or Mortality) rating [4]: D (No activity noticed in this bioassay)

SMILES: N#CC1(NC(=O)c2cc(NC(=O)C3C(c4ccc(Cl)c(Cl)c4)C3(Cl)Cl)ccc2Cl)CCC1 (stereo not drawn) [Molecule F14, trans-2-Chloro-N-(l-cyanocyclobutyl)-5-(2,2-dichloro-3-(3,4-dichlorophenyl)cyclopropanecarboxamido)benzamide]
- mortality at 200 ppm [1]: 0 to 80%
- mortality at 50 µg/cm2 [2]: 50 to 100%
- mortality at 50 µg/cm2 [3]: 50 to 100%
- YFM % Control (or Mortality) rating [4]: A (80-100)
